This passage reports Dmax, DC50 and IC50 results from patent US20260092057A1, “BCL-XL/BCL-2 DEGRADERS AND USES THEREOF” (Kymera Therapeutics, Inc., priority 2022, published 2026).

A value given as a limit tells only on which side of the number the result lay.

What all share (assay type): cell-based
One experiment concerns the target T1, BCL-XL (Homo sapiens, UniProt Q07817).
T1 construct: BCL-XL degradation results in MOLT-4 cells for compounds of the invention; endogenous in cells; host or cells: MOLT-4
Put plainly: BCL-XL degradation assay in MOLT-4 cells (ELISA, 6 h). The conditions noted are these: for DC50: read-out: Bcl-xL ELISA in MOLT-4 degradation 6 h: External Abs-DC50.

The test system of a further experiment is Caki-2 cells. Put plainly: CTG (CellTiter-Glo) cell viability assay, Caki-2. The conditions noted are these: Homo sapiens, CAKI-2, 72 h, Caki-2, 3-day; read-out: CTG Chempartner/PHA- Caki-2 3-day: Average external-IC50. A digest of the protocol: (§1)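 Cells seeded at 10,000 per well, then exposed to a 9-point 1:3 dilution series from 10 µM top concentration (0.2% DMSO) for 3 days at 37 °C, 5% CO2. Viability measured by CellTiter-Glo luminescence; IC50 from a three-parameter logistic fit.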
A general note: Cellular ATP, detected with luciferase, serves as a proxy for viable cell number.

The next experiment concerns MOLT-4 cells. Put plainly: CTG (CellTiter-Glo) cell viability assay, MOLT-4. The conditions noted are these: Homo sapiens, MOLT-4, 72 h, MOLT-4, 3 day; read-out: CTG Cell Viability Assay - MOLT-4 3 day: Average external-IC50. A digest of the protocol: as §1

T1 sequence (Q07817 whole entry): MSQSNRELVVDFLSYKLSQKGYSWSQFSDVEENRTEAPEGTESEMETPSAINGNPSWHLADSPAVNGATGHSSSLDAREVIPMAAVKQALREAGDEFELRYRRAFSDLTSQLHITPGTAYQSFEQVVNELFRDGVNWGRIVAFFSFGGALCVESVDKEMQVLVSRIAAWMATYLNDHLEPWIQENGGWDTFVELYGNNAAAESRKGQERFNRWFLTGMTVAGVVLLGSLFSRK

Usually Dmax stands for the largest share of the target that was removed. Usually DC50 stands for the concentration giving 50% degradation. Take `C#Cc1ccc([C@H](C)NC(=O)[C@@H]2C[C@@H](O)CN2C(=O)[C@@H](NC(=O)CCCCCC(=O)N2CCN(CC[C@H](CSc3ccccc3)Nc3ccc(S(=O)(=O)NC(=O)c4ccc(N5CCC([C@H](O)c6ccccc6-c6ccc(Cl)cc6)CC5)cc4)cc3S(=O)(=O)C(F)(F)F)CC2)C(C)(C)C)cc1` (single isomer, unassigned) [I-33]: the Dmax at BCL-XL was 50 to 75%. Also, the DC50 on BCL-XL was 100 to 500 nM. For the same compound, the IC50 is greater than 30 µM in the experiment with Caki-2 cells and 1000 to 3000 nM with MOLT-4 cells.

`Cc1ncsc1-c1ccc([C@H](C)NC(=O)[C@@H]2C[C@@H](O)CN2C(=O)[C@@H](NC(=O)CCCCCC(=O)N2CCN(CCCNc3ccc(S(=O)(=O)NC(=O)c4ccc(N5CCC([C@H](O)c6ccccc6-c6ccc(Cl)cc6)CC5)cc4Oc4cnc5[nH]ccc5c4)cc3S(=O)(=O)C(F)(F)F)CC2)C(C)(C)C)cc1` (single isomer, unassigned) [I-38]: on BCL-XL, the Dmax was 50 to 75% and the DC50 lay in the range of 100 to 500 nM. The IC50 in the experiment on Caki-2 cells was greater than 30 µM. In addition, the IC50 with MOLT-4 cells is 100 to 1000 nM.

As for `Cc1ncsc1-c1ccc([C@H](C)NC(=O)[C@@H]2C[C@@H](O)CN2C(=O)[C@@H](NC(=O)CCCC(=O)N2CCN(CCCNc3ccc(S(=O)(=O)NC(=O)c4ccc(N5CCC([C@H](O)c6ccccc6-c6ccc(Cl)cc6)CC5)cc4Oc4cnc5[nH]ccc5c4)cc3S(=O)(=O)C(F)(F)F)CC2)C(C)(C)C)cc1` (single isomer, unassigned) [I-60], on BCL-XL, the Dmax is less than 50% and the DC50 fell in the range of 500 to 1000 nM. The IC50 in the experiment with Caki-2 cells is greater than 30 µM. The IC50 with MOLT-4 cells fell in the range of 1000 to 3000 nM.

`Cc1ncsc1-c1ccc([C@H](C)NC(=O)[C@@H]2C[C@@H](O)CN2C(=O)[C@@H](NC(=O)CCCCCC(=O)N2CCN(c3ccc(-c4ccc(Cl)cc4)c([C@H](O)C4CCN(c5ccc(C(=O)NS(=O)(=O)c6ccc(N[C@H](CCN(C)CCO)CSc7ccccc7)c(S(=O)(=O)C(F)(F)F)c6)cc5)CC4)c3)CC2)C(C)(C)C)cc1` (single isomer, unassigned) [I-113] came in with a Dmax on BCL-XL greater than 75%. For the same compound, on BCL-XL, the DC50 is less than 10 nM. Besides, the figures for the IC50 in the experiment with Caki-2 cells and in the experiment with MOLT-4 cells were greater than 30 µM and 100 to 1000 nM, respectively.

Take `Cc1ncsc1-c1ccc([C@H](C)NC(=O)[C@@H]2CC(O)CN2C(=O)[C@@H](NC(=O)CCCCCCC(=O)N2CCN(c3ccc(-c4ccc(Cl)cc4)c(CN4CCN(c5ccc(C(=O)NS(=O)(=O)c6ccc(N[C@H](CCN(C)C)CSc7ccccc7)c([N+](=O)[O-])c6)cc5)CC4)c3)CC2)C(C)(C)C)cc1` (stereo partly drawn) [I-4]: at BCL-XL, the Dmax lay within 50 to 75% and the DC50 lay within 500 to 1000 nM. Further, the IC50 with Caki-2 cells was greater than 30 µM. Besides, the IC50 in the experiment on MOLT-4 cells is greater than 3000 nM.

Regarding `Cc1ncsc1-c1ccc([C@H](C)NC(=O)[C@@H]2C[C@@H](O)CN2C(=O)[C@@H](NC(=O)CCCCCCC(=O)N2CCN(Cc3ccc(-c4ccc(Cl)cc4)c(CN4CCN(c5ccc(C(=O)NS(=O)(=O)c6ccc(N[C@H](CCN(C)C)CSc7ccccc7)c([N+](=O)[O-])c6)cc5)CC4)c3)CC2)C(C)(C)C)cc1` [I-5], on BCL-XL, the Dmax is greater than 75% and the DC50 is 10 to 100 nM. In the experiment with Caki-2 cells, the IC50 is greater than 30 µM. The IC50 in the experiment on MOLT-4 cells was in the range of 100 to 1000 nM.

Take `Cc1ncsc1-c1ccc([C@H](C)NC(=O)[C@@H]2C[C@@H](O)CN2C(=O)[C@@H](NC(=O)CCCCCCC(=O)N2CCN(C(=O)c3ccc(-c4ccc(Cl)cc4)c(CN4CCN(c5ccc(C(=O)NS(=O)(=O)c6ccc(N[C@H](CCN(C)C)CSc7ccccc7)c([N+](=O)[O-])c6)cc5)CC4)c3)CC2)C(C)(C)C)cc1` [I-6]: on BCL-XL, the Dmax is less than 50% and the DC50 was 500 to 1000 nM. In addition, the IC50 with Caki-2 cells was greater than 30 µM. In addition, the IC50 in the experiment on MOLT-4 cells is greater than 3000 nM.

For the compound `Cc1ncsc1-c1ccc([C@H](C)NC(=O)[C@@H]2C[C@@H](O)CN2C(=O)[C@@H](NC(=O)CCCCCC(=O)N2CCN(Cc3ccc(-c4ccc(Cl)cc4)c(CN4CCN(c5ccc(C(=O)NS(=O)(=O)c6ccc(N[C@H](CCN(C)C)CSc7ccccc7)c([N+](=O)[O-])c6)cc5)CC4)c3)CC2)C(C)(C)C)cc1` [I-7], at BCL-XL, the Dmax was less than 50% and the half-maximal degradation concentration (DC50) is 500 to 1000 nM. In addition, in the experiment with Caki-2 cells, the IC50 was greater than 30 µM. The IC50 in the experiment with MOLT-4 cells is greater than 3000 nM.

`Cc1ncsc1-c1ccc([C@H](C)NC(=O)[C@@H]2C[C@@H](O)CN2C(=O)[C@@H](NC(=O)CCCCCCCC(=O)N2CCN(Cc3ccc(-c4ccc(Cl)cc4)c(CN4CCN(c5ccc(C(=O)NS(=O)(=O)c6ccc(N[C@H](CCN(C)C)CSc7ccccc7)c([N+](=O)[O-])c6)cc5)CC4)c3)CC2)C(C)(C)C)cc1` [I-8]: on BCL-XL, the Dmax fell in the range of 50 to 75% and the DC50 lay in the range of 100 to 500 nM. Further, the IC50 in the experiment with Caki-2 cells was greater than 30 µM. Further, the IC50 with MOLT-4 cells was in the range of 100 to 1000 nM.

For the compound `Cc1ncsc1-c1ccc([C@H](C)NC(=O)[C@@H]2C[C@@H](O)CN2C(=O)[C@@H](NC(=O)CCCCCCCCN2CCN(Cc3ccc(-c4ccc(Cl)cc4)c(CN4CCN(c5ccc(C(=O)NS(=O)(=O)c6ccc(N[C@H](CCN(C)C)CSc7ccccc7)c([N+](=O)[O-])c6)cc5)CC4)c3)CC2)C(C)(C)C)cc1` [I-9], on BCL-XL, the Dmax is less than 50% and the DC50 is 500 to 1000 nM. For the same compound, the IC50 in the experiment on Caki-2 cells is greater than 30 µM. For the same compound, the IC50 in the experiment on MOLT-4 cells is greater than 3000 nM.

As for `Cc1ncsc1-c1ccc([C@H](C)NC(=O)[C@@H]2C[C@@H](O)CN2C(=O)[C@@H](NC(=O)CCCCCCCC(=O)Nc2ccc(-c3ccc(Cl)cc3)c(CN3CCN(c4ccc(C(=O)NS(=O)(=O)c5ccc(N[C@H](CCN(C)C)CSc6ccccc6)c([N+](=O)[O-])c5)cc4)CC3)c2)C(C)(C)C)cc1` [I-10], at BCL-XL, the Dmax fell in the range of 50 to 75% and the DC50 was 100 to 500 nM. Also, the IC50 in the experiment on Caki-2 cells is greater than 30 µM. The IC50 in the experiment with MOLT-4 cells is greater than 3000 nM.

As for `Cc1ncsc1-c1ccc([C@H](C)NC(=O)[C@@H]2C[C@@H](O)CN2C(=O)[C@@H](NC(=O)CCCCCCNC(=O)c2ccc(-c3ccc(Cl)cc3)c(CN3CCN(c4ccc(C(=O)NS(=O)(=O)c5ccc(N[C@H](CCN(C)C)CSc6ccccc6)c([N+](=O)[O-])c5)cc4)CC3)c2)C(C)(C)C)cc1` [I-11], on BCL-XL, the Dmax is less than 50% and the DC50 lay within 500 to 1000 nM. Moreover, the IC50 in the experiment with Caki-2 cells was greater than 30 µM. Further, in the experiment on MOLT-4 cells, the IC50 is greater than 3000 nM.

Consider `Cc1ncsc1-c1ccc([C@H](C)NC(=O)[C@@H]2C[C@@H](O)CN2C(=O)[C@@H](NC(=O)CCCCCCN2CCN(CC[C@H](CSc3ccccc3)Nc3ccc(S(=O)(=O)NC(=O)c4ccc(N5CCN(Cc6ccccc6-c6ccc(Cl)cc6)CC5)cc4)cc3[N+](=O)[O-])CC2)C(C)(C)C)cc1` [I-13], for which, at BCL-XL, the Dmax fell in the range of 50 to 75% and the DC50 was 500 to 1000 nM. Further, in the experiment on Caki-2 cells, the IC50 is greater than 30 µM. Moreover, the IC50 with MOLT-4 cells was greater than 3000 nM.

Regarding `Cc1ncsc1-c1ccc([C@H](C)NC(=O)[C@@H]2C[C@@H](O)CN2C(=O)[C@@H](NC(=O)CCCCCCN(C)CC[C@H](CSc2ccccc2)Nc2ccc(S(=O)(=O)NC(=O)c3ccc(N4CCN(Cc5ccccc5-c5ccc(Cl)cc5)CC4)cc3)cc2[N+](=O)[O-])C(C)(C)C)cc1` [I-14], the Dmax at BCL-XL was less than 50%. Also, the DC50 at BCL-XL was in the range of 500 to 1000 nM. Further, the IC50 was greater than 30 µM in the experiment with Caki-2 cells and greater than 3000 nM with MOLT-4 cells.

Regarding `Cc1ncsc1-c1ccc([C@H](C)NC(=O)[C@@H]2C[C@@H](O)CN2C(=O)[C@@H](NC(=O)C2CCN(c3ccc(NC(=O)c4ccc(-c5ccc(Cl)cc5)c(CN5CCN(c6ccc(C(=O)NS(=O)(=O)c7ccc(N[C@H](CCN(C)C)CSc8ccccc8)c([N+](=O)[O-])c7)cc6)CC5)c4)cc3)CC2)C(C)(C)C)cc1` [I-21], at BCL-XL, the Dmax is less than 50% and the DC50 fell in the range of 500 to 1000 nM. Moreover, the IC50 in the experiment with Caki-2 cells was greater than 30 µM. In addition, the IC50 in the experiment on MOLT-4 cells is greater than 3000 nM.
